SMILES strings stand for the structures.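 Five concentrations, 48 hours, 96-well plates. GI50: concentration for 50% inhibition of growth. TGI: concentration producing complete growth inhibition.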

Experimental findings from PubChem BioAssay (NCI) are described below.

Experiment in all cases: inhibition of tumour cell growth, NCI panel, 48 h
The test system of test [1] is NCI-H23 lung.
The test system of test [2] is CAKI-1 renal.
In test [3] the test system is MALME-3M melanoma.
Test [4] has as its system PC-3 prostate.
Test [5] has as its system OVCAR-3 ovarian.
Test [6] concerns HCT-15 colon.
Test [7] has as its system SK-MEL-28 melanoma.
The subject of test [8] is SF-539 CNS.
In test [9] the test system is UO-31 renal.
Test [10] has as its system RPMI-8226 leukemia.

For `NCCCNc1nc2ccccc2c2c(=O)c3cc(F)ccc3sc12`, the GI50 in [1] was 1.64 µM; in [2], 1.41 µM; in test [3] it was 1.71 µM; in [4] it was 1.45 µM; in [5] it was 1.7 µM; in [6], 1.43 µM. The GI50 was 1.79 µM in [7], 1.71 µM in test [8], 1.27 µM in [9] and 1.77 µM in test [10]. The TGI stood at 3.19 µM in test [1]; 2.75 µM in [2]; 3.22 µM in test [3]; 2.98 µM in [4]; 3.25 µM in test [5]; 2.84 µM in test [6]. Besides, the TGI in test [7] was 3.24 µM; in test [8], 3.1 µM; in test [9], 2.57 µM; in test [10] it was 3.65 µM.
Take `COC(=O)c1c[nH]c2cc(OC(C)C)c(OC(C)C)cc2c1=O`: the GI50 in test [1], in [2], in test [3], in [4], in [5] and in test [6] was more than 100 µM in each case. In addition, the GI50 in [7], in test [8], in test [9] and in [10] was more than 100 µM throughout. Moreover, the TGI in test [1], in [2], in test [3], in [4], in test [5] and in [6] was more than 100 µM throughout. Moreover, the TGI in test [7], in test [8], in test [9] and in test [10] was more than 100 µM each time.
Consider `O=C1/C(=C\c2ccc(F)cc2)CN(C(=O)c2ccccc2F)C/C1=C\c1ccc(F)cc1`, for which the GI50 in [1] is 2.09 µM; in [2], 2.65 µM; in test [3], 2 µM; in [4], 1.62 µM; in test [5], 1.67 µM; in test [6], 1.05 µM. Besides, the GI50 was 1.82 µM in [7], 1.72 µM in test [8], 1.49 µM in test [9] and 0.137 µM in [10]. For the same molecule, the TGI in test [1] was found to be 4.91 µM; in [2] it was 9.16 µM; in [3], 4.09 µM; in test [4], 4.89 µM; in test [5], 3.11 µM; in [6], 2.58 µM. Moreover, the TGI came out at 3.36 µM in [7], 3.2 µM in test [8], 2.94 µM in test [9] and 0.817 µM in test [10].
With `Cc1sc(C(=O)c2cncnc2N[C@@H]2C[C@H](COS(N)(=O)=O)[C@@H](O)C2)cc1[C@@H]1NCCc2ccc(Cl)cc21`, the GI50 is 11.8 µM in test [1]; 1.63 µM in test [2]; 0.0394 µM in test [3]; 5.44 µM in test [4]; 4.98 µM in test [5]; 6.64 µM in test [6]. Besides, the GI50 in test [7] was 9.88 µM; in test [8], 1.48 µM; in [9], 3.66 µM; in [10], 2.01 µM. The TGI in [1] stood at 27 µM; in test [2], 25.5 µM; in test [3] it was 15.5 µM; in [4], 24.5 µM; in [5], 21.7 µM; in [6] it was 21.1 µM. Besides, the TGI turned out to be 22.1 µM in test [7], 20.3 µM in test [8], 24.6 µM in [9] and 22.2 µM in test [10].
As for `O=C(Nc1ccncc1)C(=O)c1cn(S(=O)(=O)c2cccc(Cl)c2)c2ccccc12`, the GI50 in test [1] is 4.65 µM; in test [2] it was 3.38 µM; in [3] it was 18.7 µM; in test [4], 11.8 µM; in test [5] it was 4.12 µM; in test [6], 3.24 µM. The GI50 in [7] was 10.2 µM; in test [8], 4.61 µM; in [9], 11.7 µM. Moreover, the TGI was more than 100 µM in [1]; 39.9 µM in [2]; more than 100 µM in [3]; more than 100 µM in [4]; 23.4 µM in [5]; more than 100 µM in [6]. Further, the TGI was 60.1 µM in test [7], 43.9 µM in [8] and more than 100 µM in test [9].
On to `CC12OC(CC(O)C1O)n1c3ccccc3c3c4c(c5c6ccccc6n2c5c31)C(=O)N(CCN1CCOCC1)C4=O` (stereo unspecified), for which the GI50 in test [1] was 1.05 µM; in test [2] it was 1.02 µM; in [3], 0.921 µM; in [4], 1.19 µM; in test [5], 1.55 µM; in [6], 1.26 µM. For the same molecule, the GI50 is 2.16 µM in test [7], 1.04 µM in test [9] and 1.55 µM in test [10]. Further, the TGI in [1] stood at 4.87 µM; in [2] it was 5.43 µM; in test [3], 5.27 µM; in test [4], 7.3 µM; in test [5] it was 7.33 µM; in [6], 8.21 µM. Besides, the TGI in test [7] stood at 8.57 µM; in test [9], 5.77 µM; in [10], 9.87 µM.
As for `CCN1CCN(c2nc(C)cc(NCc3cc(Nc4ccnc5cc(Cl)ccc45)ccc3F)n2)CC1`, the GI50 was 2.62 µM in test [1]; 1.83 µM in test [2]; 1.78 µM in test [3]; 1.72 µM in test [4]; 1.96 µM in test [5]; 1.46 µM in test [6]. Also, the GI50 in [7] was 1.7 µM; in test [8] it was 1.76 µM; in test [9], 1.31 µM; in test [10], 0.981 µM. For the same molecule, the TGI in [1] is 13 µM; in test [2], 4.72 µM; in [3], 3.66 µM; in test [4], 8.66 µM; in test [5] it was 4.93 µM; in [6], 3.66 µM. The TGI in [7] turned out to be 3.37 µM; in test [8], 3.37 µM; in [9], 2.99 µM; in test [10], 4.32 µM.
For the molecule `C=C1C(=O)O[C@H]2[C@H]1CC/C(COC(=O)c1cccnc1N)=C\CC[C@@]1(C)O[C@@H]21`, the GI50 is 5.56 µM in test [1]; 1.91 µM in test [3]; 3.72 µM in [4]; 1.04 µM in [5]; 2.34 µM in test [6]; 2.01 µM in test [7]. For the same molecule, the GI50 in test [8] was 2.56 µM; in test [9], 2.17 µM; in test [10], 0.365 µM. The TGI is 24.5 µM in test [1]; 6.65 µM in test [3]; 19.2 µM in test [4]; 2.88 µM in test [5]; 9.79 µM in test [6]; 8.85 µM in test [7]. For the same molecule, the TGI in [8] was determined as 8.74 µM; in test [9], 10.2 µM; in test [10] it was 2.54 µM.
For `NC(=O)c1c(NC(=O)c2cccs2)sc2c1CCC(=O)C2`, the GI50 in [1] is 1.83 µM; in test [2], 2.65 µM; in test [3], 1.85 µM; in [4] it was 0.627 µM; in [5], 1.8 µM; in test [6], 1.65 µM. Further, the results for the GI50 in test [7], in test [8] and in test [9] were 4.52 µM, 1.54 µM and 1.58 µM, respectively. Also, the TGI was 7.34 µM in test [1]; more than 100 µM in test [2]; 4.58 µM in test [3]; more than 100 µM in test [4]; 5.93 µM in test [5]; 17.9 µM in [6]. The TGI is more than 100 µM in test [7], 5.06 µM in [8] and 10.1 µM in test [9].
For `C=CCn1c2ccccc2c2c3c(c4c5ccccc5n(CC=C)c4c21)C(=O)N(O)C3=O`, the GI50 in test [1] was 3.03 µM; in [2], 1.69 µM; in test [3], 6.91 µM; in test [4], 2.69 µM; in test [5], 2.32 µM; in test [6], 3.18 µM. In addition, the GI50 in [7] was 5.47 µM; in [9], 1.75 µM; in test [10] it was 2.51 µM. Besides, the TGI in test [1] amounted to 22.2 µM; in test [2], 3.45 µM; in [3], 26.7 µM; in [4] it was 25.3 µM; in [5], 8.07 µM; in test [6], 17 µM. Also, the TGI was more than 100 µM in test [7], 5 µM in [9] and 10.6 µM in test [10].
As to `Cn1ncc(C#N)c1-c1ccc2c(c1)CN([C@H](CN)Cc1cccc(F)c1)C2=O`, the GI50 in [1] is 20 µM; in test [3], 1.33 µM; in test [4] it was 0.393 µM; in [5], 10 µM; in [6], 15.9 µM; in [7] it was 3.72 µM. Further, the GI50 was 0.193 µM in test [8], 3.43 µM in [9] and 2.34 µM in test [10]. The TGI is more than 100 µM in [1]; 11.3 µM in test [3]; more than 70.5 µM in test [4]; more than 90.4 µM in [5]; more than 100 µM in [6]; more than 83.2 µM in [7]. The values for the TGI in [8], in test [9] and in test [10] were 8.74 µM, 42.5 µM and 18.3 µM, respectively.
Consider `Nc1ccccc1C#C/C=C\C#Cc1ccccc1C#CCO`, for which the GI50 in test [1] is 1.83 µM; in [2] it was 4.1 µM; in [4], 27.5 µM; in test [5], 6.63 µM; in test [6] it was 4.92 µM; in test [7], 15.3 µM. In addition, the figures for the GI50 in [8], in test [9] and in test [10] were 10.8 µM, 6.69 µM and 24.3 µM, respectively. The TGI was 6.9 µM in test [1]; 18 µM in test [2]; more than 50 µM in test [4]; 18.5 µM in [5]; 18.3 µM in test [6]; more than 50 µM in test [7]. In addition, the TGI is 27.1 µM in test [8], more than 50 µM in [9] and more than 50 µM in [10].
Regarding `COC(=O)C1C(C(=O)O)C2(c3ccccc3)C(=O)C1(c1ccccc1)C(c1ccccc1)=C2c1ccccc1` (stereo unspecified), the GI50 in [1] was 16.5 µM; in test [2], 20.2 µM; in test [3], 26.8 µM; in test [4], 15.2 µM; in test [5], 19.7 µM; in test [6], 32.5 µM. Also, the GI50 in [8] is 19.5 µM; in [9], 17.9 µM; in test [10], 15.7 µM. Also, the TGI was 31.5 µM in test [1]; 40.9 µM in [2]; 59.3 µM in test [3]; 32.5 µM in test [4]; 50.4 µM in test [5]; more than 100 µM in [6]. Moreover, the TGI is 36.3 µM in [8], 36 µM in [9] and 45.7 µM in [10].
With `C=C1c2nc3ccccc3n2C=C(c2cccc(Cl)c2)N1Cc1ccc(OC)cc1`, the GI50 in [1] is 0.77 µM; in test [3] it was 0.717 µM; in test [4] it was 2.21 µM; in test [6], 0.535 µM; in test [7] it was 10.5 µM; in [8], 0.745 µM. In addition, the GI50 in test [9] is 1.92 µM; in [10], 0.361 µM. Moreover, the TGI was more than 35.7 µM in test [1]; 4.71 µM in [2]; 72 µM in [3]; more than 70.3 µM in test [4]; more than 100 µM in test [6]; 54.4 µM in [7]. The TGI in [8] was determined as 4.56 µM; in [9], 33.7 µM; in [10], 5.75 µM.
As for `CC(=Nc1ccc(N(C)C)cc1)c1ccccc1`, the TGI is more than 100 µM in test [1]; 34 µM in [2]; 25.9 µM in test [3]; 99.4 µM in test [4]; 32.2 µM in [5]; 37.9 µM in [6]. The TGI in test [7] was more than 100 µM; in [8] it was more than 100 µM; in [9], 40.7 µM.
As for `CCOc1cc(-c2nncn2C)ccc1Nc1ncc2cc(C)nc(NCC(C)(C)C)c2n1`, the GI50 in test [1] is more than 89.7 µM; in test [2], more than 26.6 µM; in test [3] it was more than 100 µM; in [5], more than 27.5 µM; in test [6] it was 0.193 µM; in test [7], more than 100 µM. Further, the GI50 in test [10] is 2.31 µM. Moreover, the TGI in test [1], in test [2], in [3], in test [4], in test [5] and in [6] was more than 100 µM throughout. Also, the TGI in [7], in [8] and in [10] was more than 100 µM throughout.
